Here are results for three compounds from PMC7927014, “Novel Small Molecule Hsp90/Cdc37 Interface Inhibitors Indirectly Target K-Ras-Signaling” (Cancers, 2021).

One series deals with HCC-44 cells. As to the kind of experiment: Tumorosphere assay (low adhesion, serum-free 3D spheroid culture). It is filed as cell-based. Conditions: Homo sapiens, HCC44; HCC-44 (lung, G12C), low attachment, serum-free, 72 h; read-out: 3D spheroid formation IC50. Here is the method: (§1) Per well, 2000 cells were seeded in flat bottom 96-well suspension culture plates (cat. no. 655185, Cellstar, Greiner Bio-One) in 100 µL DMEM or RPMI media containing 1× B27 (cat. no. 17504044, Gibco, Thermo Fisher Scientific), 25 ng/mL EGF (cat. no. E9644, Sigma-Aldrich), and 25 ng/mL FGF (cat. no. RP-8628, Thermo Fisher Scientific), 20% MethoCult H4100 (cat. no. 04100, […] Technologies). After 2 days, 50 µL media containing 0.3% DMSO or 3× the concentration of the indicated compounds were added to the wells in a 1:2 dilution-series, starting at 100 µM. After 72 h of treatment, 10% (v/v) alamarBlue reagent (cat. no. DAL1100, Thermo Fisher Scientific) was added to each well. Then, the fluorescence intensity (excitation 560 nm and emission 590 nm) was measured after 4 h using a H1 Hybrid Multi-Mode reader (BioTek).

A further series concerns MDA-MB-231 cells. Described as above. It is filed as cell-based. The conditions noted are these: Homo sapiens, MDA-MB-231, 72 h; read-out: 3D spheroid formation IC50. Here is the method:
as §1

A further series concerns SK-BR-3 cells. Described as above. Format: cell-based. Conditions: Homo sapiens; SK-BR-3 (breast, n.a.), low attachment, serum-free, 72 h; read-out: 3D spheroid formation IC50. How it is done:
as §1

The subject of the next series is MIA PaCa-2 cells. Described as above. It is filed as cell-based. The conditions noted are these: Homo sapiens; MIA PaCa-2 (pancreas), low attachment, serum-free, 72 h; read-out: 3D spheroid formation IC50. How it is done: as §1
In the next series the test system is H-RasG12V nanoclustering. As to the kind of experiment: H-RasG12V nanoclustering-FRET (FLIM-FRET) in HEK cells. Format: cell-based. The conditions noted are these: 24 h, conglobatin A 2 μM, salinomycin 1.3 μM, CAY10585 10 μM. How it is done: In total, 80,000 HEK cells were seeded in 12-well plates containing sterilized 16-mm coverslips and 1 mL medium. The next day, the cells were transfected using jetPRIME or FuGENE HD transfection reagent. For the donor fluorophore-only samples, the cells were transfected with 500 ng mGFP-tagged RasG12V plasmid. For the nanoclustering-FRET pair samples, the cells were transfected with both the donor and acceptor constructs, i.e., pmGFP- and pmCherry- RasG12V at a plasmid ratio of 1:3, respectively, and a total of 800 ng plasmids. The next day, the cells were treated with either 0.1% DMSO vehicle control or the indicated concentrations of compounds diluted in DMEM or RPMI medium for 24 h. For the gene silencing studies, the cells were transfected with the indicated amounts of siRNAs, together with the FRET pair constructs. The plasmids and siRNA were diluted in the same jetPRIME transfection buffer, followed by the addition of jetPRIME. After 48 h of transfection, the cells were fixed in 4% paraformaldehyde for 10 to 15 min, before being mounted onto slides with Mowiol 4–88 (cat. no. 81381, Sigma-Aldrich). The lifetime of the mGFP donor fluorophore was measured using a fluorescence microscope (Zeiss AXIO Observer D1) equipped with a fluorescence lifetime imaging attachment (Lambert Instruments), as described previously in detail. The apparent FRET efficiency (Eapp) was calculated as Eapp = (1 − τDA/τD) × 100%, with the measured fluorescence lifetimes τDA of the FRET sample and the τD of the donor-only sample.

Details of series [1]: method as in PMID 24927996. The conditions noted are these: mice, 900 mg/kg; cited from earlier work.
The next series has as its system Gal3. Put plainly: Western blotting of galectin-3. Format: cell-based. Conditions: Western blot, 24 h; K-RasG12V-transfected HEK and MDA-MB-231 cells. How it is done: The cells were trypsinized, washed with PBS, and lysed in RIPA buffer (cat no. 89900, ThermoFisher Scientific) containing protease and phosphatase inhibitors (cat. no. A32959, ThermoFisher Scientific) and 1 mM phenylmethylsulfonyl fluoride (PMSF). The cells in the RIPA buffer were placed on ice for 20 min, and were then sonicated in ice cold water for 5 min. The lysates were centrifuged at 4 °C, and their protein was quantified using a BCA kit (cat. no. 23225, ThermoFisher Scientific). Equal amounts of protein were separated by 10% SDS-PAGE, and were then transferred onto a nitrocellulose membrane (cat. no. NBA 083C001EA, Protran) using a wet transfer system (Bio-Rad) or semidry Transferblot Turbo Transfer System (Bio-Rad). After the transfer, the membranes were blocked for 30 min in 5% skimmed milk dissolved in 1× TBST, and then incubated with 1:2000 primary antibodies in 5% BSA in TBST at 4 °C overnight. […]
The next day, the membranes were washed three times in TBST for 10 min, and then incubated with secondary antibodies (1:5000) diluted in 5% skimmed milk in TBST for 1 h at RT. […] The protein bands were detected with a ChemiDoc MP instrument (Bio-Rad) after treatment with an ECL reagent (cat. no. 170-5061, BioRad). […]
(In western blotting, separated proteins are transferred to a membrane and probed.)

As usually defined, the IC50 is the concentration at which inhibition is half-maximal. As to `CCOc1ccc(C(=O)c2ccc(O)c(O)c2O)cc1` [×1540, 2,3,4-TRIHYDROXY-4'-ETHOXYBENZOPHENONE], the IC50 was found to be 52 ± 6 µM in the series on HCC-44 cells, 58 ± 5 µM with MDA-MB-231 cells, 64 ± 5 µM with SK-BR-3 cells and 53 ± 6 µM with MIA PaCa-2 cells.

On to `C/C1=C\[C@H](C)C[C@H](C)[C@H](Cc2cnco2)OC(=O)/C(C)=C/[C@H](C)C[C@H](C)[C@H](Cc2cnco2)OC1=O` [conglobatin A, reference compound], for which the “H-RasG12V nanoclustering-FRET” value in the series on H-RasG12V nanoclustering is listed as “not H-RasG12V-nanoclustering”. Further, in series [1], the acute toxicity result is reported as “well tolerated”. Besides, the Gal3 levels result in the series with Gal3 is given as “dose-dependently reduced”.

In the case of `N=C(CSS(=O)(=O)O)NCC12CC3CC(CC(C3)C1)C2` [×6506, [({N-[(adamantan-1-yl)methyl]carbamimidoyl}methyl)sulfanyl]sulfonic acid], the IC50 was 67 ± 5 µM with HCC-44 cells, 26 ± 1 µM in the series with MDA-MB-231 cells, 36 ± 4 µM with SK-BR-3 cells and 30 ± 3 µM with MIA PaCa-2 cells.
